Earlier results in US20230149600A1, “COLLAGEN-BASED DEVICE HAVING ANTIFUNGAL PROPERTIES” (AROA BIOSURGERY LIMITED, priority 2016, published 2023).

Experiments:
[1] = test system: Candida albicans; conditions: 5% (50 mg/mL) doxycycline solution
[2] = test system: fungal spores of the genera Aspergillus, Penicillium and Curvularia; conditions: called "moderate" activity
[3] = test system: C. albicans; conditions: 20 strains of C. albicans
[4] = test system: C. albicans biofilms; conditions: doxycycline concentrations >0.512 mg/mL; not correlated with fungicidal efficacy

For Doxycycline, the “antifungal effect relative to other solutions” value [1] is listed as “more active than a 17% EDTA solution but less active than a 2.5% NaOCl solution or a 0.2% chlorhexidine gluconate solution”, the “inhibition of fungal spore germination” value [2] is listed as 50-70% and the MIC range [3] is listed as 640 to 1280 µg/mL. The “reduction in metabolic activity of C. albicans biofilms” value [4] was ≥ 80%.
